Measured values reported in patent publication US20210115104A1, “AMYLIN ANALOGUES” (Zealand Pharma A/S, priority 2015, published 2021).
*1 amine or outer side, *2 acyl side, *3 side chain or, on linkers, in order; H or OH if unused. Where a SMILES comes first, the peptide text is derived from it. Bridges are numbered along the chain shown (N, C = ends). [ ]: non-standard residue; d: D form. The star is where a group is joined. C20 diacid = O=C(O)CCCCCCCCCCCCCCCCCCC(=O)*; γGlu = O=C(O)[C@H](CCC(=O)[*:2])N[*:1]; Hyp = O=C(O)[C@@H]1C[C@@H](O)CN1; NMeI = CC[C@H](C)[C@H](NC)C(=O)O; Aad = N[C@@H](CCCC(=O)O)C(=O)O; Sar = CNCC(=O)O

Experiments:
[1] = molecular target: T1, human calcitonin receptor (hCTR2) (Homo sapiens, UniProt P30988); assay: hCTR2 cAMP assay (AlphaScreen) in COS7 cells; type: cell-based; settings: cAMP induction, COS7 cells expressing hCTR2; Table 1; read-out: hCTR2 EC50
T1 construct: expressed in transfected cells
T1 sequence (P30988 25-474): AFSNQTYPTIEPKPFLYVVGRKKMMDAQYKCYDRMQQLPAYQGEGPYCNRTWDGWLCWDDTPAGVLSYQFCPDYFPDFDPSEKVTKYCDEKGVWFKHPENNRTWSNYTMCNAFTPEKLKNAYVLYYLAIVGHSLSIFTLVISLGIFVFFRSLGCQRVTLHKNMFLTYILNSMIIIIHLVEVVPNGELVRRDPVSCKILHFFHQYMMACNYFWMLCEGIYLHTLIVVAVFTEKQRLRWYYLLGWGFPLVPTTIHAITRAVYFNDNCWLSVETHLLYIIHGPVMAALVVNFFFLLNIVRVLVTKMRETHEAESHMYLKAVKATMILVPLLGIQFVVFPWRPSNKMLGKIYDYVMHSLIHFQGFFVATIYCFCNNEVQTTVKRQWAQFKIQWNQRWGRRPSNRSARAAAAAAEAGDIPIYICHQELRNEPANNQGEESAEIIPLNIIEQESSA
Summary of the method: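 cAMP induction, read by AlphaScreen after lysis, gives EC50 values via 4PL curve fitting. Peptides were applied at rising concentrations for 15 min at 37 °C, with IBMX and 0.1% casein in HEPES-buffered Tyrode pH 7.4, to COS7 cells (no endogenous RAMPs) stably expressing human CTR2.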

[2] = molecular target: T2, human amylin receptor 3 (hAMYR3), hCTR2 co-expressed with hRAMP3 (Homo sapiens, UniProt O60896+P30988); assay: hAMYR3 cAMP assay (AlphaScreen) in COS7 cells; type: cell-based; settings: cAMP induction, COS7 cells expressing hAMYR3; Table 1; read-out: hAMYR3 EC50
T2 construct: expressed in transfected cells
T2 sequence (P30988 25-474): T1 sequence (P30988 25-474)
T2 sequence (O60896 24-148 partner): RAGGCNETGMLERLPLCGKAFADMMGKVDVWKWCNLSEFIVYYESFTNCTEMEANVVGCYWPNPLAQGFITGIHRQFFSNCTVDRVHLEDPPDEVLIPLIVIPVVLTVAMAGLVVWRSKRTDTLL
Summary of the method: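 EC50 values derive from 4PL curve fits of cAMP (AlphaScreen) in lysates of RAMP-naive COS7 cells stably carrying hCTR2 plus hRAMP3. Peptide dilution series were applied for 15 min at 37 °C in pH 7.4 Tyrode buffer containing 100 µM IBMX and 0.1% casein.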

[3] = Assessment of physical stability (Thioflavin T fibrillation); type: physicochemical; parameters: key: FND = fibrillation not detected; FD = fibrillation detected; settings: 1 mg/ml, 40° C., ThT; for Fibrillation pH 4.0 (Ac): 50 mM acetate buffer pH 4.0, 96 hours; for Fibrillation pH 7.0 (His): 50 mM histidine buffer pH 7.0, 96 hours; for Fibrillation pH 7.0 (Phos.): 50 mM phosphate buffer pH 7.0, 96 hours
Summary of the method: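 Fibrillation lag-time, in hours, taken where regressions of the initial stable phase and the growth phase intersect. ThT (40 μM) fluorescence monitored at 40 °C for 96 h, 10-min reads each preceded by 300 s mixing. Peptide at 1 mg/ml in 50 mM buffers: phosphate or histidine pH 7.0, acetate pH 4.0.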

[4] = Assessment of chemical stability (RP-HPLC normalized purity); type: physicochemical; settings: 7 days, 40° C., Table 1; for Normalized purity after 7 days, 40° C., pH 4: pH 4, 0.2 mg/ml; for Normalized purity after 7 days, 40° C., pH 6: pH 6, 0.2 mg/ml; for Normalized purity after 7 days, 40° C., pH 7.5: pH 7.5, 0.2 mg/ml; for Normalized purity after 7 days, 40° C., pH 9: pH 9, 0.2 mg/ml
Summary of the method: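 Purity after 7 days at 40° C is expressed relative to T=0 (set to 100) for each pH. Samples at 0.2 mg/ml, pH 4, 6, 7.5 or 9, analyzed by RP-HPLC with UV 220 nm on C8 (ammonium formate) or C18 (TFA) gradients.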

| SMILES | EC50 [1] | EC50 [2] | Fibrillation pH 4.0 (Ac) [3] | Fibrillation pH 7.0 (His) [3] | Fibrillation pH 7.0 (Phos.) [3] | Normalized purity after 7 days, 40° C., pH 4 [4] | Normalized purity after 7 days, 40° C., pH 6 [4] | Normalized purity after 7 days, 40° C., pH 7.5 [4] | Normalized purity after 7 days, 40° C., pH 9 [4] |
| --- | --- | --- | --- | --- | --- | --- | --- | --- | --- |
| CC[C@H](C)[C@@H](C(=O)N[C@@H](CC(C)C)C(=O)N[C@@H](CO)C(=O)N[C@@H](CO)C(=O)N[C@H](C(=O)N[C@@H](CCC(=O)O)C(=O)N[C@H](C(=O)NCC(=O)N[C@@H](CO)C(=O)N[C@@H](CCCC(=O)O)C(=O)N[C@H](C(=O)N1C[C@H](O)C[C@H]1C(N)=O)[C@@H](C)O)C(C)C)[C@@H](C)O)N(C)C(=O)[C@H](C)NC(=O)CN(C)C(=O)[C@H](Cc1ccccc1)NC(=O)[C@H](CO)NC(=O)[C@H](CO)NC(=O)[C@H](CCCNC(=N)N)NC(=O)[C@H](CCC(N)=O)NC(=O)[C@H](CC(C)C)NC(=O)[C@H](Cc1ccccc1)NC(=O)[C@H](Cc1c[nH]cn1)NC(=O)[C@H](C)NC(=O)[C@H](CC(C)C)NC(=O)[C@H](CCCNC(=N)N)NC(=O)[C@H](CCC(=O)O)NC(=O)[C@@H](NC(=O)[C@H](C)NC(=O)[C@@H]1CSSC[C@H](NC(=O)[C@H](CCCNC(=N)N)NC(=O)CC[C@H](NC(=O)CCCCCCCCCCCCCCCCCCC(=O)O)C(=O)O)C(=O)NCC(=O)N[C@@H]([C@@H](C)O)C(=O)N[C@@H](C)C(=O)N[C@@H]([C@@H](C)O)C(=O)N1)[C@@H](C)O [Compound 53, [19CD]-isoGlu-R-C( )-GTAT-C( )-ATERLAHFLQRSSF-Gly(Me)-A-Ile(Me)-LSSTEVGS-Aad-T-Hyp-NH2] ({C20 diacid-γGlu}-RCGTATCATERLAHFLQRSSF[Sar]A[NMeI]LSSTEVGS[Aad]T[Hyp]-NH2; disulfide 2-7) | 0.14 nM | 0.13 nM | FND | FND | FND | A (A = >90%) | A (A = >90%) | B (B = 70-90%) | B (B = 70-90%) |
| CC[C@H](C)[C@@H](C(=O)N[C@@H](CC(C)C)C(=O)N[C@@H](CO)C(=O)N[C@@H](CO)C(=O)N[C@H](C(=O)N[C@@H](CCC(=O)O)C(=O)N[C@H](C(=O)NCC(=O)N[C@@H](CO)C(=O)N[C@@H](CC(N)=O)C(=O)N[C@H](C(=O)N1C[C@H](O)C[C@H]1C(N)=O)[C@@H](C)O)C(C)C)[C@@H](C)O)N(C)C(=O)[C@H](C)NC(=O)CN(C)C(=O)[C@H](Cc1ccccc1)NC(=O)[C@H](CO)NC(=O)[C@H](CO)NC(=O)[C@H](CCCNC(=N)N)NC(=O)[C@H](CCC(N)=O)NC(=O)[C@H](CC(C)C)NC(=O)[C@H](Cc1ccccc1)NC(=O)[C@H](CC(=O)O)NC(=O)[C@H](C)NC(=O)[C@H](CC(C)C)NC(=O)[C@H](CCCNC(=N)N)NC(=O)[C@H](CCC(=O)O)NC(=O)[C@@H](NC(=O)[C@H](C)NC(=O)[C@@H]1CSSC[C@H](NC(=O)[C@H](CCCNC(=N)N)NC(=O)CC[C@H](NC(=O)CCCCCCCCCCCCCCCCCCC(=O)O)C(=O)O)C(=O)NCC(=O)N[C@@H]([C@@H](C)O)C(=O)N[C@@H](C)C(=O)N[C@@H]([C@@H](C)O)C(=O)N1)[C@@H](C)O [Compound 54, [19CD]-isoGlu-R-C( )-GTAT-C( )-ATERLADFLQRSSF-Gly(Me)-A-Ile(Me)-LSSTEVGSNT-Hyp-NH2] ({C20 diacid-γGlu}-RCGTATCATERLADFLQRSSF[Sar]A[NMeI]LSSTEVGSNT[Hyp]-NH2; disulfide 2-7) | 0.08 nM | 0.14 nM | FND | FND | FND | A (A = >90%) | A (A = >90%) | B (B = 70-90%) | B (B = 70-90%) |
| CC[C@H](C)[C@@H](C(=O)N[C@@H](CC(C)C)C(=O)N[C@@H](CO)C(=O)N[C@@H](CO)C(=O)N[C@H](C(=O)N[C@@H](CCC(=O)O)C(=O)N[C@H](C(=O)NCC(=O)N[C@@H](CO)C(=O)N[C@@H](CC(N)=O)C(=O)N[C@H](C(=O)N1C[C@H](O)C[C@H]1C(N)=O)[C@@H](C)O)C(C)C)[C@@H](C)O)N(C)C(=O)[C@H](C)NC(=O)CN(C)C(=O)[C@H](Cc1ccccc1)NC(=O)[C@H](CO)NC(=O)[C@H](CO)NC(=O)[C@H](CCCNC(=N)N)NC(=O)[C@H](CCC(N)=O)NC(=O)[C@H](CC(C)C)NC(=O)[C@H](Cc1ccccc1)NC(=O)[C@H](Cc1c[nH]cn1)NC(=O)[C@H](C)NC(=O)[C@H](CC(C)C)NC(=O)[C@H](CCCNC(=N)N)NC(=O)[C@H](CCC(=O)O)NC(=O)[C@@H](NC(=O)[C@H](C)NC(=O)[C@@H]1CSSC[C@H](NC(=O)[C@H](CCCNC(=N)N)NC(=O)CC[C@H](NC(=O)CCCCCCCCCCCCCCCCCCC(=O)O)C(=O)O)C(=O)N[C@@H](CC(N)=O)C(=O)N[C@@H]([C@@H](C)O)C(=O)N[C@@H](C)C(=O)N[C@@H]([C@@H](C)O)C(=O)N1)[C@@H](C)O [Compound 56, [19CD]-isoGlu-R-C( )-NTAT-C( )-ATERLAHFLQRSSF-Gly(Me)-A-Ile(Me)-LSSTEVGSNT-Hyp-NH2] ({C20 diacid-γGlu}-RCNTATCATERLAHFLQRSSF[Sar]A[NMeI]LSSTEVGSNT[Hyp]-NH2; disulfide 2-7) | 0.06 nM | 0.08 nM | FND | FND | FND | A (A = >90%) | A (A = >90%) | A (A = >90%) | B (B = 70-90%) |
| CC[C@H](C)[C@@H](C(=O)N[C@@H](CC(C)C)C(=O)N[C@@H](CO)C(=O)N[C@@H](CO)C(=O)N[C@H](C(=O)N[C@@H](CC(=O)O)C(=O)N[C@H](C(=O)NCC(=O)N[C@@H](CO)C(=O)N[C@@H](CC(N)=O)C(=O)N[C@H](C(=O)N1C[C@H](O)C[C@H]1C(N)=O)[C@@H](C)O)C(C)C)[C@@H](C)O)N(C)C(=O)[C@H](C)NC(=O)CN(C)C(=O)[C@H](Cc1ccccc1)NC(=O)[C@H](CO)NC(=O)[C@H](CO)NC(=O)[C@H](CCCNC(=N)N)NC(=O)[C@H](CCC(N)=O)NC(=O)[C@H](CC(C)C)NC(=O)[C@H](Cc1ccccc1)NC(=O)[C@H](Cc1c[nH]cn1)NC(=O)[C@H](C)NC(=O)[C@H](CC(C)C)NC(=O)[C@H](CCCNC(=N)N)NC(=O)[C@H](CC(=O)O)NC(=O)[C@@H](NC(=O)[C@H](C)NC(=O)[C@@H]1CSSC[C@H](NC(=O)[C@H](CCCNC(=N)N)NC(=O)CC[C@H](NC(=O)CCCCCCCCCCCCCCCCCCC(=O)O)C(=O)O)C(=O)N2CCC[C@H]2C(=O)N[C@@H]([C@@H](C)O)C(=O)N[C@@H](C)C(=O)N[C@@H]([C@@H](C)O)C(=O)N1)[C@@H](C)O [Compound 59, [19CD]-isoGlu-R-C( )-PTAT-C( )-ATDRLAHFLQRSSF-Gly(Me)-A-Ile(Me)-LSSTDVGSNT-Hyp-NH2] ({C20 diacid-γGlu}-RCPTATCATDRLAHFLQRSSF[Sar]A[NMeI]LSSTDVGSNT[Hyp]-NH2; disulfide 2-7) | 0.03 nM | 0.11 nM | FND | FD | FD | A (A = >90%) | B (B = 70-90%) | C (C = <70%) | B (B = 70-90%) |
